Data taken from US12162918B2, “Periostin compounds for the treatment of haematological complications” (Chemotherapeutisches Forschungsinstitut Georg-Speyer-Haus, priority 2018, dated 2024).
Entries after “also recorded” stand apart in the source; their conditions may differ.

Legend:
[1] = system: bone marrow Lin− and LKS cells; assay: Apoptosis, cell cycle, pAKT and macrophages in bone marrow of warfarin-treated mice; type: in vivo
Method: (§1) 0.5 mg/kg/d or 0.05 mg/kg/d of warfarin, resuspended in phosphate-buffered saline was administered to mice via subcutaneously implanted osmotic minipumps (ALZET minipumps, Cupertino, CA). The osmotic minipumps were changed after 14 days (if the experiment went beyond 14 days of treatment). Sham operated (skin incision and suture) mice served as controls. Warfarin treatment continued for 10-14 days. In the xenotransplantation experiments the mice were treated with warfarin via the drinking water (or normal drinking water) at a dose of 0.72 mg/100 ml for a total of 3 days a week (Pfeilschifter et al., 2011).
For cell cycle analysis cells were permeabilized and fixed with the cytoperm/cytofix kit (BD Biosciences, San Jose, CA), followed by staining with an antibody to Ki67-PE (Biolegend, San Diego, CA) overnight at 4 C. Consequently, cells were washed and resuspended in PBS with DAPI (1 ng/ml). For detection of apoptosis cells were first stained for surface markers, washed with Annexin V buffer (Life Technologies, Darmstadt, Germany), stained with Annexin V-PE (Life Technologies, Darmstadt, Germany), washed with Annexin V binding buffer, resuspended in PBS with DAPI and analyzed.
The PE-labelled anti-pAKT antibody (Cell signaling, #5315, Danvers, MA) was used for intracellular flow cytometry after fixation and permeabilization of the cells.

periostin = assay: Anti-Gla coimmunoprecipitation of conditioned medium from stroma cells; type: cell-based, mice; details: warfarin-treated stroma cells, anti-gla antibody
distal femora = assay: Bone histomorphometry of distal femora; type: in vivo, mice
Text: The femora were isolated and first fixed in 4% paraformaldehyde at 4C overnight and then in 70% ethanol for an additional 5 days. Fixed bones were dehydrated in graded ethanol, then embedded in methyl methacrylate without demineralization. Undecalcified 5 μm thick longitudinal sections were obtained using a microtome (RM2255, Leica Biosystem, IL, USA). The sections were stained with Goldner Trichrome and at least two consecutive sections per specimen were examined for measurements of cellular parameters. A standard histomorphometric analysis of the femur methaphysis was performed using the Osteomeasure analysis system (Osteometrics Inc, Decatur, GA, USA). Measurements were performed 200 μm below the distal growth plate. The observer was blinded to the experimental group at the time of measurement. The cellular parameters were calculated and expressed according to the standardized nomenclature (Dempster et al., 2013).

Lin− bone marrow cells = assay: Culture of Lin− bone marrow cells in conditioned medium from stroma cells; type: cell-based, mice; details: conditioned medium from warfarin-treated stroma cells
Method: Conditioned medium was harvested from stroma from 5 mice grown in the above medium containing vehicle or warfarin for 7 days. Consequently, 100,000 Lin− cells were grown for 2-3 days in the conditioned medium and analyzed for cell counts by flow cytometry. Where indicated, the conditioned medium was concentrated using Microsep Advance Centrifugal Devices 30K Omega (Pall Life Sciences, Portsmouth, UK).

wildtype mice = assay: Complete blood count and flow cytometry of peripheral blood and bone marrow of treated mice; type: in vivo; details: for absolute number of monocytes in peripheral blood / absolute number of leukocytes in peripheral blood: 14 days after initiation
Method: as §1
5-fluorouracil was intraperitoneally injected every week at a dose of 75 mg/kg for a total of 4 doses or as a one time dose of 200 mg/kg. Recombinant mouse periostin (R&D Systems, Minneapolis, MN, cat. no. 2955-F2), produced in the Sf21 (baculovirus)-derived insect cell line, was administered intravenously at a dose of 2-4 μg per day and vitamin K was given at a dose of 15 mg/kg by oral gavage for four consecutive days.
We assessed the complete blood count of vehicle or warfarin-treated mice using a complete blood count analyzer (Scil Vet ABC, Gurnee, IL). Peripheral blood and bone marrow samples were stained with antibodies for flow cytometry, which was performed on a BD LSR Fortessa (BD Biosciences, Heidelberg, Germany). The lineage antibody cocktail contained antibodies to B220, CD5, Ter119, F4/80 and CD11b. Engraftment of human cells in NSG mice was assessed using anti-human CD45 (BD Biosciences, San José, CA).

stroma cells = assay: Focused gene expression analysis of stroma cells; type: cell-based, mice; details: warfarin- compared to vehicle-treated stroma cells
HSPC = assay: Methylcellulose colony assay of BM cells from treated mice; type: cell-based; details: from warfarin-treated vs control mice, P=0.02
Text: For the methylcellulose colony assays, we plated 10,000 total BM cells from vehicle- or warfarin-treated mice in methylcellulose (M3434, Stem Cell Technologies, Vancouver, Canada). We scored colonies after 10 days.

CD45.1+ LKS cells = assay: Transplantation of sorted LKS or Lin− cells from warfarin-treated mice into untreated recipients; type: in vivo
Method: SJL (CD45.1) donor mice were treated with vehicle or warfarin, euthanized and long bones were flushed, followed by RBC lysis (Life Technologies, Darmstadt, Germany). For competitive transplantation 2×10^6 total BM cells from SJL mice were co-transplanted with 1×10^6 CD45.2+ BM competitor cells into lethally irradiated (900 cGy) C57BL/6N (CD45.2+) recipient mice. For serial transplantation 2×10^6 total CD45.1+ BM cells were transplanted into lethally irradiated C57BL/6N recipient mice. Cell engraftment and chimerism were assessed by flow cytometry of peripheral blood leukocytes for CD45.1 and CD45.2 after 4, 8, 12 and 16 weeks post transplantation. In the limiting dilution experiment we treated primary CD45.1+ donor mice with vehicle or warfarin for 14 days and, consequently, transplanted 5×10^5, 12.5×10^4, 6×10^4 and 1.5×10^4 pooled BM cells into 5 CD45.2+ recipients per group adding 5×10^5 CD45.2+ supporter cells. In indicated experiments we transplanted 5,000 or 10,000 sorted CD45.1+ LKS cells from mice treated with vehicle or warfarin plus 1×10^6 CD45.2+ total BM supporter cells into CD45.2+ recipient mice.

Lin− cells = assay: Plating of warfarin-exposed Lin− cells on untreated versus warfarin-treated stroma, with or without MK-2206; type: cell-based, mice

Question: With `CC(=O)CC(c1ccccc1)c1c(O)c2ccccc2oc1=O` (centres unmarked) [warfarin] as the molecule, how does the “annexin V+ DAPI+ dead LKS cells in bone marrow” value ([1]; after 6 weeks, P=0.03) read?
Answer: modest increase

Question: And the “annexin V+ DAPI+ dead Lin− cells in bone marrow” value ([1]; after two weeks, P=0.038)?
Answer: modest increase

Question: And the “macrophages in the bone marrow of primary mice” value ([1]; warfarin vs controls)?
Answer: not reduced

Question: And the “percentage of LKS cells in the Go phase of the cell cycle” value ([1]; warfarin vs vehicle, P=0.005)?
Answer: significantly increased

Question: And the “pAKT+ Lin− cells in the bone marrow” value ([1]; warfarin-treated vs control mice, P=0.04)?
Answer: significant reduction

Question: What about the “γ-carboxylated periostin in conditioned medium” value (periostin) of the same molecule?
Answer: no γ-carboxylated periostin could be detected

Question: What about the “ratio of bone volume/tissue volume (BV/TV)” value (distal femora; P<0.001) of the same molecule?
Answer: decreased

Question: What about the “number of osteoblasts (N.Ob/B.Pm)” value (distal femora; P=0.0001) of the same molecule?
Answer: significantly increased

Question: And the “osteoblast surface (Ob.S/BS)” value (distal femora; P=0.0008)?
Answer: significantly increased

Question: And the “osteoclast surface (Oc.S/BS)” value (distal femora; P=0.01)?
Answer: significantly increased

Question: And the “osteoid volume (OV/BV)” value (distal femora; P=0.046)?
Answer: significantly increased

Question: What about the cancellous bone mass (distal femora; distal femora, warfarin-treated vs control mice) of the same molecule?
Answer: dramatic reduction; also recorded: significant reduction

Question: What about the “osteoclast differentiation or number (N.Oc/B.Pm)” value (distal femora; mouse, in vivo) of the same molecule?
Answer: absence of changes

Question: And the “trabecular number and thickness” value (distal femora; mouse, in vivo)?
Answer: reduced

Question: And the trabecular separation (distal femora; mouse, in vivo)?
Answer: increased

Question: What about the “Lin− cell fraction” value (Lin− bone marrow cells; P=0.0001) of the same molecule?
Answer: decrease

Question: And the “total number of hematopoietic cells” value (Lin− bone marrow cells; P=0.0009)?
Answer: decrease

Question: And the myeloid cell fraction (Lin− bone marrow cells; P=0.001)?
Answer: decrease

Question: And the “absolute count and percentage of LKS, LKS SLAM and myeloid progenitor cells in the bone marrow” value (wildtype mice; 2 and 4 weeks, controls vs warfarin-treated mice)?
Answer: did not significantly differ

Question: What about the “time at which the decrease in leukocytes and monocytes appeared” value (wildtype mice; after initiation of treatment) of the same molecule?
Answer: as early as three days

Question: And the “absolute number of monocytes in peripheral blood” value (wildtype mice; higher dose (0.5 mg/kg), P=0.007)?
Answer: reduced

Question: What about the “absolute number of leukocytes in peripheral blood” value (wildtype mice; higher dose (0.5 mg/kg), P=0.008) of the same molecule?
Answer: reduced

Question: What about the “absolute number of leukocytes in peripheral blood” value (wildtype mice; lower dose (0.05 mg/kg)) of the same molecule?
Answer: reduced

Question: What about the “absolute number of monocytes in peripheral blood” value (wildtype mice; lower dose (0.05 mg/kg)) of the same molecule?
Answer: reduced

Question: And the “leukocyte and monocyte counts, oral versus subcutaneous administration” value (wildtype mice; oral versus subcutaneous)?
Answer: similarly reduced

Question: What about the lethal hemorrhagic complications (wildtype mice; subcutaneous versus oral treatment) of the same molecule?
Answer: fewer lethal hemorrhagic complications

Question: And the lymphocyte count (wildtype mice; warfarin-treated mice)?
Answer: decreased, albeit to a lesser extent than myeloid cells

Question: And the “percentage of CD11b+ myeloid cells in peripheral blood” value (wildtype mice; warfarin-treated vs control mice, P=0.003)?
Answer: decreased

Question: What about the “expression of C-X-C motif chemokine 12 (CxCl12)” value (stroma cells) of the same molecule?
Answer: trend towards increased expression

Question: What about the “expression of osteopontin, Runx 2, Ccl3, Angpt1, Igf1, Notch1 and Wnt7b” value (stroma cells) of the same molecule?
Answer: significant decreases

Question: And the “expression of stem cell factor (SCF; Kitl)” value (stroma cells)?
Answer: unchanged

Question: And the “colony-forming ability of HSPC” value (HSPC)?
Answer: significantly impaired

Question: What about the “percentage of Lin− cells in the S/G2/M phases after transplantation into an untreated BMM” value (CD45.1+ LKS cells; Lin− cells from a warfarin-treated BMM, P=0.04) of the same molecule?
Answer: increase

Question: And the “percentage of CD45.1+ donor cells in peripheral blood of recipients” value (CD45.1+ LKS cells; equal numbers of LKS cells from warfarin-treated donors, one month after transplantation, P=0.03)?
Answer: higher percentage

Question: What about the “reconstitution by warfarin-treated LKS cells” value (CD45.1+ LKS cells; higher number of transplanted LKS cells, 16 weeks post transplantation) of the same molecule?
Answer: lower than in the case of control LKS cells

Question: And the “number of pAKT+ Lin− cells” value (Lin− cells; previously warfarin-exposed Lin− cells on untreated stroma, P=0.02)?
Answer: increased

Question: And the “number of hematopoietic cells” value (Lin− cells; warfarin-treated Lin− cells on untreated compared to warfarin-treated stroma, P=0.009)?
Answer: increased number

Question: What about the “percentage of Lin− cells in the S/G2/M phases” value (Lin− cells; warfarin-treated Lin− cells on untreated compared to warfarin-treated stroma, P=0.02) of the same molecule?
Answer: increase
